US20110112133A1, “DIHYDRO PYRROLOQUINOLINE DERIVATIVES” (Takeda Pharmaceutical Company Limited, priority 2009, published 2011)

Target: T1, hNK3 receptor (Homo sapiens, UniProt P29371)
T1 construct: expressed in transfected cells; host or cells: CHO cells
T1 sequence (P29371 1-465): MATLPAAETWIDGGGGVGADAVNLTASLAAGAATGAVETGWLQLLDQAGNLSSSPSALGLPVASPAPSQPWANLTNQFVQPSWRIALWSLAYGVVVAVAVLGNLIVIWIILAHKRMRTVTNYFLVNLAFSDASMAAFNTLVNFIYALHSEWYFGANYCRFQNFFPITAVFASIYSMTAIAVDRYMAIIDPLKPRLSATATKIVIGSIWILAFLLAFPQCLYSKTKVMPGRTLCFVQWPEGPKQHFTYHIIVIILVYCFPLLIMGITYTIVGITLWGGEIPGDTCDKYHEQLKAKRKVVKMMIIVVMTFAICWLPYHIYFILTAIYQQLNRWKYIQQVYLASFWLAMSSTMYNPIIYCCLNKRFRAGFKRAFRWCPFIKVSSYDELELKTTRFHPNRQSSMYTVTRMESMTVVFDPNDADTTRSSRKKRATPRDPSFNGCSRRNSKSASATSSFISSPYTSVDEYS
Assay: Radioligand receptor binding inhibitory activity using membrane fraction of hNK3 receptor-expressing CHO cell ([125I]-NKB)
Settings: for inhibition at 10 µM / inhibition at 1 µM: read-out: hNK3 receptor binding inhibitory activity (inhibitory rate (%))
Description: Radioligand Receptor Binding Inhibitory Activity Using Membrane Fraction of hNK3 Receptor-Expressing CHO Cell
hNK3 receptor-expressing CHO cells were cultured in a HAM-F12 medium containing 500 μg/mL Geneticin, 100 U/mL penicillin, 100 μg/mL streptomycin and 10% inactivated serum. The medium was removed before reaching confluence, and the cells were washed with PBS. PBS containing 0.5 mM EDTA was added to detach the cells from the flask and a cell suspension was recovered. The cells were recovered by low speed centrifugation. The cells were suspended in suspending buffer A (50 mM Tris-HCl (pH 7.4), 120 mM NaCl, 5 mM KCl, bacitracin (40 μg/mL), chymostatin (2 μg/mL), PMSF (0.5 mM), 1 mM EDTA), disrupted by a POLYTRON homogenizer (manufactured by KINEMATICA) and centrifuged at 2000×g for 10 min at 4° C. The supernatant was recovered, and ultracentrifuged at 40000×g for 60 min at 4° C. The precipitated fraction was suspended in suspending buffer B (50 mM Tris-HCl (pH 7.4), 3 mM MnCl2, 0.02% BSA, bacitracin (40 μg/mL), chymostatin (2 μg/mL), PMSF (0.5 mM)). The protein concentration of the suspension was measured using Bio-Rad Protein Assay kit and bovine serum albumin (protein preparation), and cryopreserved (at −80° C.) as a membrane fraction preparation of hNK3 receptor-expressing CHO cell until use for a binding assay.
The radioligand receptor binding assay was performed in a 96 well microassay plate format with a final volume of 200 μL. To the 96 well microassay plate were added 50 μL of assay buffer (50 mM Tris-HCl (pH 7.4), 0.02% bovine serum albumin, 2 μg/mL chymostatin, 40 μg/mL bacitracin, 40 μg/mL APMSF, 3 mM MnCl2), the aforementioned cryopreserved membrane fraction preparation suspended in assay buffer (50 μL (300 μg/mL)) and a test compound diluted with 50 μL of assay buffer (containing 2% dimethyl sulfoxide). The reaction was started by the addition of 50 μL of 400 pM [^125I]-NKB NKB (PerkinElmer Life Sciences) solution. For the measurement of the total binding, assay buffer (50 μL) containing 2% dimethyl sulfoxide was added instead of a diluted test compound solution, and for the measurement of non-specific binding, 50 μL of 4 μM unlabeled NKB (manufactured by Peptide Institute, Inc.) solution (diluted with assay buffer containing 2% dimethyl sulfoxide) was added.
After reaction at room temperature for 30 min, using a cell harvester (manufactured by PerkinElmer), the reaction was stopped by rapid filtration on a unifilter plate (GF/C) (manufactured by PerkinElmer), which had been immersed in 0.3% polyethyleneimine for one day, and the membrane fraction was washed 10 times with 50 mM Tris-HCl (pH 7.4) buffer containing 0.02% bovine serum albumin (250 μL). The GF/C filter plate was dried and 20 μL of MicroScinti-O (manufactured by PerkinElmer) was added to each well and the radioactivity was measured by TopCount (manufactured by PerkinElmer).
Specific binding is shown by the value obtained by subtracting non-specific binding from the total binding. The binding inhibitory activity of the test compound is shown by the ratio of the value obtained by subtracting the measured value associated with the addition of the test compound from the total binding, to the value of the specific binding.

Row | Structure (SMILES) | inhibition at 10 µM (test compound 10^−5 M) [%] | inhibition at 1 µM (test compound 10^−6 M) [%] | hNK3 receptor binding inhibitory activity (inhibitory rate (%)) (test compound 10^−6 M) [%] | hNK3 receptor binding inhibitory activity (inhibitory rate (%)) (test compound 10^−5 M) [%]
1 | Cc1ccn(-c2ccc(C(=O)N[C@@H]3CCC(F)(F)C[C@@H]3C(=O)N3CCc4c(-c5ccsc5)nc5ccccc5c43)cc2)n1 [Example 7, N-[(1R,2S)-4,4-difluoro-2-{(4-thiophen-3-yl-2,3-dihydro-1H-pyrrolo[3,2-c]quinolin-1-yl)carbonyl]cyclohexyl}-4-(3-methyl-1H-pyrazol-1-yl)benzamide] | 35.6 | 5.9 | – | –
2 | Cc1ccn(-c2ccc(C(=O)N[C@@H]3CCC(F)(F)C[C@@H]3C(=O)N3CCc4c(-c5ncc[nH]5)nc5ccccc5c43)cc2)n1 [Example 1, N-[(1R,2S)-4,4-difluoro-2-{[4-(1H-imidazol-2-yl)-2,3-dihydro-1H-pyrrolo[3,2-c]quinolin-1-yl]carbonyl}cyclohexyl]-4-(3-methyl-1H-pyrazol-1-yl)benzamide] | 28.4 | – | 9.0 | –
3 | Cc1ccn(-c2ccc(C(=O)N[C@@H]3CCC(F)(F)C[C@@H]3C(=O)N3CCc4c(-c5ccccc5)nc5ccc(F)cc5c43)cc2)n1 [Example 9, N-{(1R,2S)-4,4-difluoro-2-[(8-fluoro-4-phenyl-2,3-dihydro-1H-pyrrolo[3,2-c]quinolin-1-yl)carbonyl]cyclohexyl}-4-(3-methyl-1H-pyrazol-1-yl)benzamide] | 53.1 | 27.7 | – | –
4 | Cc1ccn(-c2ccc(C(=O)N[C@@H]3CCC(F)(F)C[C@@H]3C(=O)N3CCc4c(-c5ncc[nH]5)nc5ccccc5c43)cc2)n1.Cl [Example 3, N-[(1R,2S)-4,4-difluoro-2-{(4-(1H-imidazol-2-yl)-2,3-dihydro-1H-pyrrolo[3,2-c]quinolin-1-yl]carbonyl}cyclohexyl]-4-(3-methyl-1H-pyrazol-1-yl)benzamide hydrochloride] | – | – | 9.4 | 30.4
5 | Cc1ccn(-c2ccc(C(=O)N[C@@H]3CCC(F)(F)C[C@@H]3C(=O)N3CCc4c(-c5nccn5COC(=O)C(C)(C)C)nc5ccccc5c43)cc2)n1 [Example 4, [2-(1-{[(1S,2R)-5,5-difluoro-2-({[4-(3-methyl-1H-pyrazol-1-yl)phenyl]carbonyl}amino)cyclohexyl]carbonyl)-2,3-dihydro-1H-pyrrolo[3,2-c]quinolin-4-yl)-1H-imidazol-1-yl]methyl 2,2-dimethylpropanoate] | -7.9 | -6.1 | – | –
6 | Cc1ccn(-c2ccc(C(=O)N[C@@H]3CCC(F)(F)C[C@@H]3C(=O)N3CCc4c(-c5ncc[nH]5)nc5ccc(F)cc5c43)cc2)n1 [Example 5, N-[(1R,2S)-4,4-difluoro-2-{[8-fluoro-4-(1H-imidazol-2-yl)-2,3-dihydro-1H-pyrrolo[3,2-c]quinolin-1-yl]carbonyl}cyclohexyl]-4-(3-methyl-1H-pyrazol-1-yl)benzamide] | 15.2 | -8.1 | – | –
7 | Br.Cc1ccn(-c2ccc(C(=O)N[C@@H]3CCC(F)(F)C[C@@H]3C(=O)N3CCc4c(-c5ncc[nH]5)nc5ccccc5c43)cc2)n1 [Example 2, N-[(1R,2S)-4,4-difluoro-2-{[4-(1H-imidazol-2-yl)-2,3-dihydro-1H-pyrrolo[3,2-c]quinolin-1-yl]carbonyl}cyclohexyl]-4-(3-methyl-1H-pyrazol-1-yl)benzamide hydrobromide] | – | – | 4.1 | 32.7
